Assay results as given in article PMC11940194, “Synthesis, Antiproliferative Activity, and ADME Profiling of Novel Racemic and Optically Pure Aryl-Substituted Purines and Purine Bioisosteres” (Biomolecules, 2025).
“Also recorded” adds a separate entry of the source.

Key:
[1] = test system: P-glycoprotein (human MDR1); test: MDCKII-MDR1 permeability assay; type: in vitro ADME, canine cells with over-expressed human MDR1 gene; conditions: dog, MDCK-MDR1; for Papp A→B at 60 min, 10 µM / Papp B→A at 60 min, 10 µM: 37 °C; for efflux ratio at 60 min, 10 µM: <2 no efflux, >2 active efflux
Procedure, shortened: (§1)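 Bidirectional transport across MDCKII cells overexpressing human MDR1, compounds 10 µM (1% DMSO) for 60 min at 37 °C, with and without 2 µM elacridar. Monolayer integrity checked by Lucifer yellow; compound concentrations quantified by LC-MS/MS (MRM).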

[2] = test system: normal skin fibroblasts (HFF-1); test: Cytotoxicity MTT assay, normal skin fibroblasts; type: cell-based, human; conditions: Homo sapiens, HFF-1, 72 h, 72 h incubation, mean ± SD
Procedure, shortened: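 Seeding density followed doubling time: 3000 cells per well for the cancer lines, 5000 for normal fibroblasts. Test substances, freshly diluted from 0.01 to 100 µM, were incubated with the cells for 72 h before MTT measurement of growth rate. IC50 values came from linear regression of dose–response curves.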

[3] = Hydrolytic stability in aqueous buffer (UV/Vis); type: physicochemical; conditions: phosphate buffer/DMSO 99:1, pH 7.4, 1 × 10⁻⁴ mol dm⁻³, UV/Vis spectra over 24 h
Excerpt: Solvents and chemicals, including starting purines and purine bioisosters 1–5, as well as para-substituted 2-phenyloxiranes 11–15 and phenacyl bromide 21–25, were purchased from Sigma-Aldrich (St. Louis, MO, USA), Alfa Aesar (Haverhill, MA, USA), and Fisher Scientific International (Pittsburgh, PA, USA). The progress of all reactions was monitored by thin layer chromatography on pre-coated Merck (Darmstadt, Germany) silica gel plates 60F254. The synthesized compounds were purified via column chromatography using Fluka (Buchs, Switzerland) silica gel (0.063−0.2 mm) and the appropriate solvent. All NMR spectra were recorded using a Bruker 300, 400, and 600 MHz NMR spectrometer (Bruker Biospin, Rheinstetten, Germany) in deuterated DMSO solutions, with TMS as the internal standard. The melting points of all newly synthesized compounds were determined using a Koffler (Reichert, Vienna) hot stage microscope. The ^1H (δ/ppm) and ^13C NMR (δ/ppm) spectra of compounds 26a,b–49a,b can be found in the Supporting Information (Figures S1–S48). The purity of all newly synthesized compounds was determined by elemental analysis and the elemental analysis results are within 0.5% of the theoretical values. The UV/Vis absorption spectra of compounds 40a, 45a, and 49b were measured at a concentration of 1 × 10⁻⁴ mol dm⁻³ in phosphate buffer and DMSO (99:1, v/v) at pH 7.4 using a Varian Cary 50 spectrophotometer in double-beam mode at 25 °C.
Selected 6-chloropurine (40a), 4-chloropyrrolo[2,3-d]pyrimidine (45a), and 4-chloroimidazo[4,5-c]pyridine (49b) with significant antiproliferative activity were examined for hydrolytic stability in an aqueous buffer solution.
2. UV/Vis absorption spectra of selected compounds
Figure S49. UV/Vis absorption spectra of compounds 40a (a), 45a (b), and 49b (c) recorded in phosphate buffer with 1% DMSO (99:1, v/v) at pH 7.4 (c = 1 × 10⁻⁴ mol dm⁻³). Spectra were measured immediately after sample preparation and after 24 hours to evaluate spectral stability over time.
(1 picture or pasted object on this page, not shown here)

[4] = test system: MCF-7, CFPAC-1, HT-29, HepG2 tumor cell lines and HFF-1 fibroblasts; test: Antiproliferative activity, whole cell line panel; type: cell-based, human; conditions: tested cell lines
Procedure: The human ATCC tumor cell lines breast adenocarcinoma (MCF7), colorectal carcinoma (HT-29), pancreatic ductal adenocarcinoma (CFPAC-1), hepatocellular carcinoma (HepG2), and normal skin fibroblasts (HFF) derived from ATCC (American Type Culture Collection) were cultured in Dulbecco’s Modified Eagle Medium (DMEM) or Minimum Essential Medium (MEM) supplemented with 10% fetal bovine serum (FBS), 2 mM L-glutamine, 100 U/mL penicillin, and 100 µg/mL streptomycin (Lonza, Basel, Switzerland) in a humidified atmosphere with 5% CO2 at 37 °C. For the experiment, carcinoma cell lines and normal human cell lines were seeded in 96-well microtiter plates at a density of 3000 cells per well and 5000 cells per well, respectively, depending on the doubling time of the specific cell line. The test substances were then added at fivefold, tenfold dilutions (0.01 to 100 µM), freshly prepared in the growth medium on the day of testing, and incubated for a further 72 h. After 72 h of incubation, the growth rate of the cells was determined using the MTT assay according to the manufacturer’s guidelines. […] The IC50 values were calculated from the dose–response curves using linear regression analysis. The experiment was performed in tetraplicates in two individual experiments.
Newly synthesized compounds were evaluated for their cytotoxic activity in vitro against four human cancer cell lines, including human breast adenocarcinoma (MCF-7), ductal pancreatic adenocarcinoma (CFPAC-1), colorectal carcinoma (HT-29), and hepatocellular carcinoma (HepG2), as well as on non-cancerous skin fibroblasts (HFF-1), to check for non-specific toxicity. Furthermore, 5-Fluorouracil (5-FU) was used as a reference drug. The results are expressed as 50% inhibitory concentration (IC50) values and are listed in Table 2, Table 3, Table 4 and Table 5.

[5] = test system: MDCKII-MDR1 cells (P-glycoprotein); test: MDCKII-MDR1 permeability assay; type: in vitro ADME, canine cells with over-expressed human MDR1 gene; conditions: permeability class
Procedure, shortened: as §1

Compound `OC(Cn1cc(Cn2cnc3c(Cl)nccc32)nn1)c1ccc(Br)cc1` (stereo not shown) [Compound 49b, 4-Chloro-1-((1-(2-hydroxy-2-(4-bromophenyl)ethyl)-1H-1,2,3-triazol-4-yl)methyl)-1H-imidazo[4,5-c]pyridine] has a Papp A→B at 60 min, 10 µM [1] of no more than 2 ×10⁻⁶ cm/s, a Papp B→A at 60 min, 10 µM [1] of 36.9 ×10⁻⁶ cm/s and an efflux ratio at 60 min, 10 µM [1] of 23.3. For the same compound, the Papp at 60 min, 10 µM ([1]; permeability class) was no more than 2 ×10⁻⁶ cm/s, the IC50 [2] was 21 ± 5.8 µM and the hydrolytic stability [3] was “hydrolytically stable”.
For `OCC(c1ccc(C(F)(F)F)cc1)n1cc(Cn2ccc3c(Cl)ncnc32)nn1` (stereo not shown) [Compound 45a, 4-Chloro-7-((1-(2-hydroxy-1-(4-(trifluoromethyl)phenyl)ethyl)-1H-1,2,3-triazol-4-yl)methyl)-7H-pyrrolo[2,3-d]pyrimidine], the “antiproliferative activity (in words)” value [4] was “submicromolar antiproliferative activity”, the Papp A→B at 60 min, 10 µM [1] was 7.6 ×10⁻⁶ cm/s and the Papp B→A at 60 min, 10 µM [1] was 66.4 ×10⁻⁶ cm/s. For the same compound, the efflux ratio at 60 min, 10 µM [1] was 8.8, the Permeability [5] was “good membrane permeability; also recorded: MODERATE” and the IC50 [2] was 20 ± 4.7 µM. The hydrolytic stability [3] was “hydrolytically stable”.
